Here are results for 21 compounds from ChEMBL document CHEMBL3400046, “Discovery and evaluation of a novel monocyclic series of CXCR2 antagonists” (Bioorg Med Chem Lett, 2015).

Usually pKa stands for the pH at which an ionisable group is half protonated. Low values mean a stronger acid or weaker base, high ones a weaker acid or stronger base. As a reminder, the logD is lipophilicity at a set pH, counting ionised and neutral species. A low value points to lower lipophilicity. One may read the Papp A→B as how fast a substance crosses the layer from the apical side. The term bioavailability denotes the share of a dose that reaches the circulation, judged against a reference dose that is usually intravenous. Read a low bioavailability as little systemic uptake. Broadly, the hepatocyte CLint is the capacity of the preparation to metabolise the compound, expressed as a volume cleared per time. Broadly, the half-life is the time in which the quantity being followed falls by half. One may read the clearance as the rate of elimination divided by the concentration. One may read the AUC as the area under the concentration-time curve, a measure of exposure.

The nature of data set [1]: Dissociation constant, pKa of the compound. The data set is classed as physicochemical.
A further data set is described as follows: physchem. The following applies: octanol/water.
Data set [2] in a line: in vitro. The following applies: human, Caco-2.
Data set [3] can be described thus: Bioavailability in iv dosed rat. The data set is classed as ADME, organism-based. The following applies: in vivo.
Data set [4] can be described thus: Volume of distribution at steady state in iv dosed rat. The following applies: in vivo, read-out: Vdss. The data set is classed as ADME, organism-based.
Data set [5] in a line: in vitro. The conditions noted are these: human, hepatocytes.
The nature of data set [6]: Half life in iv dosed rat. The data set is classed as ADME, organism-based. The conditions noted are these: in vivo.
Data set [7] in a line: Fraction of the dose absorbed in iv dosed rat. The following applies: in vivo, read-out: Fabs. The data set is classed as ADME, organism-based.
A short description of another data set: in vivo. The conditions noted are these: rat, iv.
The test system of a further data set is Rattus norvegicus. The data set is described as follows: Dose normalized AUC in po dosed rat. The data set is classed as ADME, organism-based. The conditions noted are these: in vivo.
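Throughout, for logD: distribution coefficient determined with the shake-flask method.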

Take `C[C@H](CO)Nc1cc(C(=O)O)nc(SCc2ccccc2)n1`: the pKa in [1] was 5.5. The compound further returned a logD in the data set “physchem” of -0.7.
As for `C[C@H](CO)Nc1cc(C(=O)NS(C)(=O)=O)nc(SCc2ccccc2)n1`, the pKa in [1] turned out to be 4.9. In the data set “physchem”, this compound displayed a logD of -0.7.
The matching figures for `C[C@H](CO)Nc1cc(NS(C)(=O)=O)nc(SCc2ccccc2)n1`: 6.9 and 1.9.
`C[C@H](CO)Nc1cc(NS(=O)(=O)Cc2ccccc2)nc(SCc2ccccc2)n1` showed a logD in “physchem” of 2.7.
In data set [1], `C[C@H](CO)Nc1cc(NS(=O)(=O)C(F)(F)F)nc(SCc2ccccc2)n1` yielded a pKa of 5.8. The logD in “physchem” stood at 2.2.
Turning to `C[C@H](CO)Nc1cc(NS(=O)(=O)c2ccccc2)nc(SCc2ccccc2)n1`, the pKa in data set [1] is 6.6. This compound registered a logD in “physchem” of 2.5.
Consider `C[C@H](CO)Nc1cc(NS(=O)(=O)c2ccc(Cl)cc2)nc(SCc2ccccc2)n1`, for which the pKa in data set [1] was 6.5. This compound yielded a logD in “physchem” of 3.5.
The compound `C[C@H](CO)Nc1cc(NS(=O)(=O)c2ccc(C#N)cc2)nc(SCc2ccccc2)n1` had a pKa in data set [1] of 6.1. The logD in the data set “physchem” was found to be 2.6.
Regarding `C[C@H](CO)Nc1cc(NS(=O)(=O)N(C)C)nc(SCc2ccccc2)n1`, the pKa in data set [1] is 7.3. Besides, in the data set “physchem”, the logD turned out to be 2.6.
On to `C[C@H](CO)Nc1cc(NS(=O)(=O)c2cn(C)cn2)nc(SCc2cccc(F)c2F)n1`, for which the logD in “physchem” came to 1.6.
Turning to `C[C@H](CO)Nc1cc(NS(=O)(=O)c2cn(C)cn2)nc(SCc2cccc(Cl)c2F)n1`, the logD in “physchem” was found to be 2. In addition, the apical-to-basolateral permeability (Papp A→B) in the data set “in vitro [2]” was found to be 1.4 ×10⁻⁶ cm/s.
Turning to `C[C@H](CO)Nc1cc(NS(=O)(=O)N(C)C)nc(SCc2cccc(Cl)c2F)n1`, the logD in the data set “physchem” was determined as 3.4. Further, in “in vitro [2]”, the Papp A→B worked out at 6.4 ×10⁻⁶ cm/s.
`C[C@H](CO)Nc1cc(NS(=O)(=O)N2CCNCC2)nc(SCc2cccc(Cl)c2F)n1`: in “physchem”, the logD was determined as 1.5. The Papp A→B in “in vitro [2]” turned out to be 0.1 ×10⁻⁶ cm/s.
In [3], `C[C@H](CO)Nc1cc(NS(=O)(=O)N2CCC2)nc(SCc2cccc(F)c2F)n1` displayed a bioavailability of 44%. Besides, in [4], the Vd was found to be 1.4 L/kg. The compound also displayed a hepatocyte CLint in the data set “in vitro [5]” of 3.1 µL/min/1e6 cells. The half-life in [6] was 3.2 h. The same compound yielded a logD in the data set “physchem” of 2.6. Further, in data set [7], the Fa was determined as 50%. Also, the clearance in “in vivo” was determined as 8 mL/min/kg. The compound further showed an AUC/dose in the data set on Rattus norvegicus of 5.9 µM·h. For the same compound, the Papp A→B in “in vitro [2]” was found to be 10.1 ×10⁻⁶ cm/s.
With `C[C@H](CO)Nc1cc(NS(=O)(=O)N2CCC2)nc(SCc2cccc(Cl)c2F)n1`, the hepatocyte CLint in “in vitro [5]” was determined as 2.4 µL/min/1e6 cells. Besides, in “physchem”, the log distribution coefficient (logD) was found to be 3.2.
On to `C[C@H](CO)Nc1cc(NS(=O)(=O)N2CCCC2)nc(SCc2cccc(F)c2F)n1`, for which, in the data set “in vitro [5]”, the hepatocyte CLint came to 12 µL/min/1e6 cells. The compound also came in with a logD in the data set “physchem” of 3.4. The Papp A→B in the data set “in vitro [2]” was 7.5 ×10⁻⁶ cm/s.
In turn, `C[C@H](CO)Nc1cc(NS(=O)(=O)N2CCCCC2)nc(SCc2cccc(F)c2F)n1` yielded a hepatocyte CLint in “in vitro [5]” of 30 µL/min/1e6 cells. In addition, in “physchem”, the logD worked out at 3.9.
`C[C@H](CO)Nc1cc(NS(=O)(=O)N2CCOCC2)nc(SCc2cccc(F)c2F)n1` yielded a bioavailability in [3] of 31%. For the same compound, the Vd in data set [4] is 1.1 L/kg. The hepatocyte CLint in the data set “in vitro [5]” was 4.6 µL/min/1e6 cells. The compound also gave a half-life in data set [6] of 1 h. In addition, the Fa in [7] was 48%. Besides, the clearance in “in vivo” was found to be 25 mL/min/kg. The compound also displayed an AUC/dose with Rattus norvegicus of 1.6 µM·h.
Turning to `C[C@H](CO)Nc1cc(NS(=O)(=O)N2CCOCC2)nc(SCc2cccc(Cl)c2F)n1`, the hepatocyte CLint in “in vitro [5]” is 8 µL/min/1e6 cells. In “physchem”, this compound registered a logD of 3.1. The compound also showed an apparent permeability from apical to basolateral (Papp A→B) in “in vitro [2]” of 5.4 ×10⁻⁶ cm/s.
For `C[C@H](CO)Nc1nc(SCc2cccc(F)c2F)nc2nc(N)sc12`, in data set [3], the bioavailability amounted to 9%. In [7], the Fa worked out at 12%. In the data set with Rattus norvegicus, this compound displayed an AUC/dose of 0.7 µM·h.
Compound `C[C@H](CO)Nc1nc(SCc2cccc(F)c2F)nc2[nH]c(=O)sc12` returned a bioavailability in data set [3] of 22%. The Vd in [4] is 0.3 L/kg. Besides, the hepatocyte CLint in “in vitro [5]” is 15 µL/min/1e6 cells. The compound also showed a half-life in data set [6] of 1.1 h. Further, the Fa in data set [7] came out at 24%. The clearance in “in vivo” was determined as 6 mL/min/kg. In addition, the AUC with Rattus norvegicus stood at 2.1 µM·h.
